Measurements reported in ChEMBL document CHEMBL3763148, “Synthesis, structure elucidation, DNA-PK and PI3K and anti-cancer activity of 8- and 6-aryl-substituted-1-3-benzoxazines” (Eur J Med Chem, 2016).

How the values were obtained:
[1] = target: T1, Phosphatidylinositol 4,5-bisphosphate 3-kinase catalytic subunit delta isoform (Homo sapiens, UniProt O00329); assay: Inhibition of PI3Kdelta (unknown origin) incubated for 60 mins by kinase-glo luminescence assay
T1 sequence (O00329 whole entry): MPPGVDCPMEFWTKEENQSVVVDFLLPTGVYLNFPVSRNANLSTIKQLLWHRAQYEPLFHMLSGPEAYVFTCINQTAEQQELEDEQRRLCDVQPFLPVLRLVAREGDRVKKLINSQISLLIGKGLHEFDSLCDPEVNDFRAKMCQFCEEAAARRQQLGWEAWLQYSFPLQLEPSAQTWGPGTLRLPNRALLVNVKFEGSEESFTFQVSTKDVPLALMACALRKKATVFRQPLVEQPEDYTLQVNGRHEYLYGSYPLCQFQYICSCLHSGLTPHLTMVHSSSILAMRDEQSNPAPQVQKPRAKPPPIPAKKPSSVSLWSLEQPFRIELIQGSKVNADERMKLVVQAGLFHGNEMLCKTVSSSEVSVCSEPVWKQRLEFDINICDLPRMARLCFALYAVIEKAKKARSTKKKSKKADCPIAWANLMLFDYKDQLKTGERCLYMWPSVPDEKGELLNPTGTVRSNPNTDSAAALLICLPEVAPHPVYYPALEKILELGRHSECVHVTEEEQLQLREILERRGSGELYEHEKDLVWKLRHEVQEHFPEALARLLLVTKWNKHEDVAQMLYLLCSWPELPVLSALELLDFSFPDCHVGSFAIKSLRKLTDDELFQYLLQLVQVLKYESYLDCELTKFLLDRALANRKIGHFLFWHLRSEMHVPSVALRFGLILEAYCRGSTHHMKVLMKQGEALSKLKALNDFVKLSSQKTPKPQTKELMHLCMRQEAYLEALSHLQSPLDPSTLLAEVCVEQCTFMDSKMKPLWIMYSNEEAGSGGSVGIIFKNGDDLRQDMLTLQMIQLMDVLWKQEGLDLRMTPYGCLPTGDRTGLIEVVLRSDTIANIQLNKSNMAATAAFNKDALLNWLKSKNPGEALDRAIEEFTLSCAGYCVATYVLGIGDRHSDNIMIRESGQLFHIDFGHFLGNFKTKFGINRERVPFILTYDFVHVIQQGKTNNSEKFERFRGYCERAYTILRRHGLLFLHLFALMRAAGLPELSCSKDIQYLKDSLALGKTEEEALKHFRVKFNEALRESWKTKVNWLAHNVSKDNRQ

CCRF-CEM = assay: Cytotoxicity against human CCRF-CEM cells assessed as cell growth inhibition at 10 uM after 48 hrs by SRB assay relative to control; type: functional; details: read-out: GI
K562 = assay: Cytotoxicity against human K562 cells assessed as cell growth inhibition at 10 uM after 48 hrs by SRB assay relative to control; type: functional; details: K562, 48 h, read-out: GI
SR = assay: Cytotoxicity against human SR cells assessed as cell growth inhibition at 10 uM after 48 hrs by SRB assay relative to control; type: functional; details: read-out: GI
A549 = assay: Cytotoxicity against human A549 cells assessed as cell growth inhibition at 10 uM after 48 hrs by SRB assay relative to control; type: functional; details: A549, 48 h, read-out: GI
NCI-H226 = assay: Cytotoxicity against human NCI-H226 cells assessed as cell growth inhibition at 10 uM after 48 hrs by SRB assay relative to control; type: functional; details: NCI-H226, 48 h, read-out: GI
NCI-H460 = assay: Cytotoxicity against human NCI-H460 cells assessed as cell growth inhibition at 10 uM after 48 hrs by SRB assay relative to control; type: functional; details: NCI-H460, 48 h, read-out: GI
[2] = Cytotoxicity against human HCT116 cells assessed as cell growth inhibition at 10 uM after 48 hrs by SRB assay relative to control; type: functional; details: HCT-116, 48 h, read-out: GI
[3] = Cytotoxicity against human HCT15 cells assessed as cell growth inhibition at 10 uM after 48 hrs by SRB assay relative to control; type: functional; details: HCT-15, 48 h, read-out: GI
KM12 = assay: Cytotoxicity against human KM12 cells assessed as cell growth inhibition at 10 uM after 48 hrs by SRB assay relative to control; type: functional; details: KM12, 48 h, read-out: GI
[4] = Cytotoxicity against human SF268 cells assessed as cell growth inhibition at 10 uM after 48 hrs by SRB assay relative to control; type: functional; details: SF-268, 48 h, read-out: GI
M14 = assay: Cytotoxicity against human M14 cells assessed as cell growth inhibition at 10 uM after 48 hrs by SRB assay relative to control; type: functional; details: M14, 48 h, read-out: GI
SK-MEL-5 = assay: Cytotoxicity against human SK-MEL-5 cells assessed as cell growth inhibition at 10 uM after 48 hrs by SRB assay relative to control; type: functional; details: SK-MEL-5, 48 h, read-out: GI
[5] = Cytotoxicity against human UACC62 cells assessed as cell growth inhibition at 10 uM after 48 hrs by SRB assay relative to control; type: functional; details: UACC-62, 48 h, read-out: GI
[6] = Cytotoxicity against human OVCAR3 cells assessed as cell growth inhibition at 10 uM after 48 hrs by SRB assay relative to control; type: functional; details: OVCAR-3, 48 h, read-out: GI
[7] = Cytotoxicity against human OVCAR5 cells assessed as cell growth inhibition at 10 uM after 48 hrs by SRB assay relative to control; type: functional; details: OVCAR-5, 48 h, read-out: GI
[8] = Cytotoxicity against human OVCAR8 cells assessed as cell growth inhibition at 10 uM after 48 hrs by SRB assay relative to control; type: functional; details: OVCAR-8, 48 h, read-out: GI
786-0 = assay: Cytotoxicity against human 786-0 cells assessed as cell growth inhibition at 10 uM after 48 hrs by SRB assay relative to control; type: functional; details: 786-0, 48 h, read-out: GI
SN12C = assay: Cytotoxicity against human SN12C cells assessed as cell growth inhibition at 10 uM after 48 hrs by SRB assay relative to control; type: functional; details: read-out: GI
[9] = Cytotoxicity against human UO31 cells assessed as cell growth inhibition at 10 uM after 48 hrs by SRB assay relative to control; type: functional; details: UO-31, 48 h, read-out: GI
[10] = Cytotoxicity against human DU145 cells assessed as cell growth inhibition at 10 uM after 48 hrs by SRB assay relative to control; type: functional; details: DU-145, 48 h, read-out: GI
MDA-MB-231 = assay: Cytotoxicity against human MDA-MB-231 cells assessed as cell growth inhibition at 10 uM after 48 hrs by SRB assay relative to control; type: functional; details: MDA-MB-231, 48 h, read-out: GI
[11] = Cytotoxicity against human BT549 cells assessed as cell growth inhibition at 10 uM after 48 hrs by SRB assay relative to control; type: functional; details: BT-549, 48 h, read-out: GI
MDA-MB-468 = assay: Cytotoxicity against human MDA-MB-468 cells assessed as cell growth inhibition at 10 uM after 48 hrs by SRB assay relative to control; type: functional; details: MDA-MB-468, 48 h, read-out: GI

Row | SMILES | IC50 [1] [µM] | inhibition of growth at 10 µM (CCRF-CEM) [%] | inhibition of growth at 10 µM (K562) [%] | inhibition of growth at 10 µM (SR) [%] | inhibition of growth at 10 µM (A549) [%] | inhibition of growth at 10 µM (NCI-H226) [%] | inhibition of growth at 10 µM (NCI-H460) [%] | inhibition of growth at 10 µM [2] [%] | inhibition of growth at 10 µM [3] [%] | inhibition of growth at 10 µM (KM12) [%] | inhibition of growth at 10 µM [4] [%] | inhibition of growth at 10 µM (M14) [%] | inhibition of growth at 10 µM (SK-MEL-5) [%] | inhibition of growth at 10 µM [5] [%] | inhibition of growth at 10 µM [6] [%] | inhibition of growth at 10 µM [7] [%] | inhibition of growth at 10 µM [8] [%] | inhibition of growth at 10 µM (786-0) [%] | inhibition of growth at 10 µM (SN12C) [%] | inhibition of growth at 10 µM [9] [%] | other results
1 | COc1ccc(-c2cccc3c(=O)nc(N4CCOCC4)oc23)cc1 | 2.7 | 2.57 | 7.02 | 26.1 | 5.88 | 15.1 | -5.69 | 7.05 | 3.13 | 2.91 | 6.91 | -0.43 | 9.19 | 19.3 | 5.94 | 4.76 | 4.78 | 9.72 | 8.75 | 17.4 | inhibition of growth at 10 µM [10]: 1.58%; inhibition of growth at 10 µM (MDA-MB-231): 3.13%; inhibition of growth at 10 µM [11]: 4.99%; inhibition of growth at 10 µM (MDA-MB-468): 6.21%
2 | NC(=O)c1ccc(-c2cccc3c(=O)nc(N4CCOCC4)oc23)cc1 | > 10 | 1.37 | -10.4 | 8.01 | -0.08 | 17.4 | -5.06 | -3.97 | -2.19 | 2.45 | 6.21 | 2.25 | 2.24 | 7.72 | 0.57 | 3.19 | -1.1 | -0.31 | -3.74 | 10.8 | inhibition of growth at 10 µM [10]: -3.19%; inhibition of growth at 10 µM (MDA-MB-231): 8.08%; inhibition of growth at 10 µM [11]: 1.94%; inhibition of growth at 10 µM (MDA-MB-468): -5.19%
3 | O=c1nc(N2CCOCC2)oc2c(-c3cccc4ccccc34)cccc12 | 0.64 | 8.52 | 9.87 | 27.1 | 14.4 | 33.4 | -10 | 3.34 | 6.69 | 12.7 | 19.4 | 6.76 | 20.8 | 45.6 | 14.2 | 10.8 | 14.8 | 25.6 | 17.7 | 46.6 | inhibition of growth at 10 µM [10]: 2.34%; inhibition of growth at 10 µM (MDA-MB-231): 6.52%; inhibition of growth at 10 µM [11]: 14.7%; inhibition of growth at 10 µM (MDA-MB-468): 23.5%
